In brackets after ≈: the same amount, converted by molar mass. Where two headings read alike, the source gives them in different places.
Legend:
[1] = tested on: promastigote forms of Leishmania (Leishmania) amazonensis (IM5584); assay: Assay with promastigote forms, L. (L.) amazonensis; format: cell-based
Method: (§1) We used the species L. (Leishmania) amazonensis [L. (L.) amazonensis] (MHOM/BR/2009/IM5584) and L. (Viannia) guyanensis [L. (V.) guyanensis] (MHOM/BR/1975/M4147), which had been cultivated in the biphasic medium Novy - MacNeal - Nicolle (NNN) and amplified in the RPMI liquid medium (Himedia®). The culture was centrifuged for 15 min at 4,400 g. Parasites were adjusted to a concentration of 10[4] parasites/mL.
(§2) The parasites were used at a concentration of 10[4] parasites/mL. The assay was performed in 96-well plates (KASVI®), and then the same procedure and concentrations of the substances were used in the cytotoxicity assay, with negative control and culture medium containing parasites. The activity of the complexes was evaluated at 24, 48, and 72 h intervals using a Neubauer chamber. In addition, cellular viability was evaluated using the assay. Three independent tests were conducted.
(§3) Statistical analysis was performed using linear regression to calculate IC50 using GraphPad Prism® (GraphPad Software Inc. version 6.0, for Windows). Results are expressed as mean ± standard deviation.

[2] = tested on: promastigote forms of Leishmania (Viannia) guyanensis (M4147); assay: Assay with promastigote forms, L. (V.) guyanensis; format: cell-based
Method: as §1, §2, §3

[3] = tested on: murine peritoneal macrophages; assay: Cytotoxicity (MTT) in murine peritoneal macrophages; format: cell-based, Balb/c (Mus musculus) mice; conditions: for CC50: peritoneal macrophages, MTT
Method: Peritoneal macrophages were extracted from Balb/c (Mus musculus) mice, from colonies of the Central Vivarium at the INPA, with the approval of the Ethics Committee on the Use of Animals (CEUA - INPA 023/2020; Appendix A). The animals were anesthetized with ketamine hydrochloride (Dopalen®), and a ventral incision was made. The RPMI medium was introduced; and the abdominal massage was performed for macrophage activation, followed by aspiration, and centrifuged at 1,500 g for 10 min. Cell concentration was adjusted to 10[4] macrophages/mL[6].
(§4) The assay was performed in 96-well plates (KASVI®). The RPMI medium was added to the cells at a concentration of 10[4] cells/mL/well. The metal complexes were added at concentrations of […] in triplicate as […], and Glucantime® was used at the same concentration as the metal complexes. The negative controls used DMSO at 4 concentrations (2%, 1%, 0.50%, and 0.25%), and the RMPI medium containing the cells remained exposed to the substance for up to 24, 48, and 72 h.
(§5) After each period, a solution of [3-(4,5-dimethylthiazol-2yl) -2,5-diphenyltetrazolium] bromide (MTT) was added to the wells at (concentration of 0.5 mg/mL). The plates were incubated for 4 h at 37 °C and then subjected to spectrophotometry (Biotek®) at an absorbance of 590 nm. Three independent trials were performed with peritoneal macrophages and human monocytes.

human monocytes = assay: Cytotoxicity (MTT) in human monocytes; format: cell-based; conditions: for CC50: MTT
Method: Human monocytes were obtained after approval from the Research Ethics Committee (CEP-UFAM: 29406319.2.0000.5020) (Appendix B). Blood samples were collected from all patients. Phosphate-buffered saline (PBS) 1 x was added, and the blood/PBS was added gently on Ficoll-Histopaque (Sigma-Aldrich®) [density of 1077] and centrifuged for 30 min/200 g[7]. Peripheral blood mononuclear cells were collected, added PBS 1 x, and centrifuged for 3 min at 400 × g. The cell concentration was adjusted to 10[4] monocytes/mL[7].
as §4, §5

[4] = tested on: amastigote forms of L. (L.) amazonensis internalized in murine peritoneal macrophages; assay: Assay with amastigote forms of L. (L.) amazonensis in peritoneal macrophages; format: cell-based, Leishmania (Leishmania) amazonensis
Method: (§6) The assay against amastigote forms was performed using murine peritoneal macrophages and human monocytes, obtained as described for the cytotoxicity assay. The cells were incubated for 48 h in a 24 well-plate containing glass coverslips with the RPMI medium, and cell volume adjusted to 10[5] macrophages/monocyte/mL.
(§7) The adhered cells were infected with promastigote forms of Leishmania spp. and left for 2 h. The test substances were then added at the concentrations used in previous trials and exposed for 24, 48, and 72 h. Coverslips were stained using a Panoptic kit (Laborclin® - Laborclin Products for Laboratories Ltd, Pinhais, Brazil) and quantified using optical microscopy at 400 × magnification. A total of 100 cells were quantified to evaluate the number of infected and uninfected macrophages and internalized amastigotes. Three independent assays were performed on peritoneal macrophages and human monocytes.
(§8) The SI is the relationship between the cytotoxic activity of the tested compound and its anti-leishmanial activity. In our study, the SI was calculated from the ratio of cytotoxicity for macrophages/monocytes with a cytotoxic concentration at 50% (CC50) and action against amastigote forms in each of these cell types with an inhibitory concentration at 50% (IC50), using the equation: SI = CC50IC50-AMA^3
as §3

[5] = tested on: amastigote forms of L. (V.) guyanensis in murine peritoneal macrophages; assay: Assay with amastigote forms of L. (V.) guyanensis in peritoneal macrophages; format: cell-based, Leishmania (Viannia) guyanensis
Method: as §6, §7, §8, §3

[6] = tested on: amastigote forms of L. (L.) amazonensis in human monocytes; assay: Assay with amastigote forms of L. (L.) amazonensis in human monocytes; format: cell-based, Leishmania (Leishmania) amazonensis
Method: as §6, §7, §3

[7] = tested on: amastigote forms of L. (V.) guyanensis in human monocytes; assay: Assay with amastigote forms of L. (V.) guyanensis in human monocytes; format: cell-based, Leishmania (Viannia) guyanensis
Method: as §6, §7, §3

[8] = tested on: lesions caused by L. (L.) amazonensis; assay: Topical treatment of lesions in hamsters infected with L. (L.) amazonensis; format: in vivo, Mesocricetus auratus; conditions: for Infected cells / internalized amastigotes in lesion fragments: after 30 days of treatment; for Lesion volume (in words): gel topically 0.3 mg/day once a day, Glucantime IM 3 mg (Sb5)/kg/day, 30 days, Ag2 effect after the 14th day
Method: (§9) To prepare the Carbopol®-based gel, Nipagin® was mixed with distilled water until its total solubilization, and then Carpobol® was added. Then, the metal complex was added and incorporated separately in each gel, and triethonolamine was added gradually until a thick gel was obtained. Finally, the metal complexes were mixed at a concentration of 3 mg/L, a value defined for comparative purposes with the positive control of the study (Glucantime®) administered at the same concentration via the intramuscular (IM) route.
(§10) For the assays, 72 adult male aged 60-days golden hamsters (Mesocricetus auratus) that were free of pathogens and had been previously obtained from the Central Vivarium at the INPA (CEUA 060/2018) were used [Appendix C]. The animals were housed in stainless steel cages in air-conditioned rooms, with controlled light, temperature (22-25 °C), humidity (50-60%), and food and water ad libitum.
(§11) Animals were separated into six groups. Five groups were infected with 100 µL of a solution containing 10[6] promastigote/mL of Leishmania spp. The first experiment involved 36 animals infected with L. (L.) amazonensis, and the second experiment involved 36 animals infected with L. (V.) guyanensis. Animals were divided into the following groups:
• Group I: Uninfected control • Group II: Untreated, infected control • Group III: Infected and treated with Glucantime® (IM) • Group IV: Infected and treated with Ag1 (lesions treated topically once a day) • Group V: Infected and treated with Ag2 (lesions treated topically once a day) • Group VI: Infected and treated with gel without the addition of complexes (lesions treated topically once a day)
To evaluate the course of infection, the total volume of the lesion (length, width, and height) was measured using a caliper (Zaas® Precision). Animals were weighed once per week. After 30 days of treatment, the animals were euthanized using ketamine hydrochloride (Dopalen®) combined with xylazine hydrochloride (Anasedan®) following the Animal Use Ethics Commission (CEUA) protocols (060/2018).
(§12) For parasitological studies, a sample of the tissue from the lesion region lesion in each animal was sectioned, and the fragment was printed on a glass slide and stained using the Panoptic kit (Laborclin®). The slides were evaluated using optical microscopy, 30 fields were counted, and the analysis and quantification of infected and uninfected cells and the quantity of internalized amastigote forms were performed. Fragments of each animal’s skin lesions and liver were also sectioned and cultured in an NNN medium for 7 days. After this period, an aliquot containing the fragments was evaluated using optical microscopy for parasitological analysis.
For the in vivo results, we used two-way analysis of variance to evaluate the statistical significance between the groups, followed by the Tukey test to compare the means of the groups at a 95% confidence interval.

[9] = tested on: lesions caused by L. (V.) guyanensis; assay: Topical treatment of lesions in hamsters infected with L. (V.) guyanensis; format: in vivo, Mesocricetus auratus
Method: as §9, §10
as §11, with “groups: […]” for “groups:”
To evaluate the course of infection, the total volume of the lesion (length, width, and height) was measured using a caliper (Zaas® Precision). […]
as §12, with “Fragments of each animal’s skin lesions and liver were also sectioned and cultured in an NNN medium for 7 days.” left out, “analysis. […]” for “analysis.”

mammalian TrxR = tested on: mammalian TrxR; set-up: method as in PMID 33238608; conditions: purified enzyme and cell extracts; cited from earlier work
[10] = tested on: large panel of cancer cell lines; set-up: method as in PMID 33238608; conditions: cited from earlier work
[11] = tested on: amastigote of L. (L.) amazonensis; set-up: method as in doi:10.1016/j.poly.2014.05.004; conditions: cited from earlier work
[12] = L. (L.) amazonensis (IM5584), 24 h, read-out: IC50 values, promastigote forms
[13] = L. (L.) amazonensis (IM5584), 48 h, read-out: IC50 values, promastigote forms
[14] = L. (L.) amazonensis (IM5584), 72 h, read-out: IC50 values, promastigote forms

| Compound | IC50 [1, 12] [µM] | IC50 [1, 13] [µM] | IC50 [1, 14] [µM] | IC50 ([2]; 24 h) [µM] | IC50 ([2]; 48 h) [µM] | IC50 ([2]; 72 h) [µM] | IC50 ([4]; 24 h) [µM] | IC50 ([4]; 48 h) [µM] | IC50 ([4]; 72 h) [µM] | IC50 ([5]; 24 h) [µM] | IC50 ([5]; 48 h) [µM] | IC50 ([5]; 72 h) [µM] | IC50 ([6]; 24 h) [µM] | IC50 ([6]; 48 h) [µM] | IC50 ([6]; 72 h) [µM] | IC50 ([7]; 24 h) [µM] | IC50 ([7]; 48 h) [µM] | IC50 ([7]; 72 h) [µM] | Infected cells / internalized amastigotes in lesion fragments [8] | Lesion volume (in words) [8] | further results |
| --- | --- | --- | --- | --- | --- | --- | --- | --- | --- | --- | --- | --- | --- | --- | --- | --- | --- | --- | --- | --- | --- |
| C1N2CN3CN1CP(C2)C3.C1N2CN3CN1CP(C2)C3.C1N2CN3CN1CP(C2)C3.C1N2CN3CN1CP(C2)C3.F[B-](F)(F)F.[Ag+] [Ag1, [Ag (PTA)4]BF4] | < 10 | 69.2 ± 3.03 | 104 ± 1.47 | 75.14 ± 0.53 | 130 ± 2.94 | 228.9 ± 1.26 | 6.09 ± 0.47 | 14.9 ± 0.41 | 23.8 ± 1.51 | 90.51 ± 0.7 | 105.1 ± 0.42 | 116 ± 1.58 | 23.3 ± 1.04 | 69.04 ± 0.34 | 150.7 ± 0.91 | 109.2 ± 0.63 | 186.6 ± 0.57 | 270.3 ± 0.25 | greater number of internalized amastigotes | evolution of lesions | IC50 ([1]; L. (L.) amazonensis, read-out: Activity class according to IC50, promastigotes): < 10 µM; Cytotoxicity (in words) [3]: toxic; Cytotoxicity (in words) (human monocytes): toxic; Number of amastigotes internalized in lesion ([9]; compared to the treated groups): highest number; Number of infected cells in lesion fragments ([9]; statistical difference compared to Glucantime): largest number of infected cells |
| [Ag+].c1ccc(P(c2ccccc2)c2ccccc2)cc1.c1cnn([BH-](n2cccn2)n2cccn2)c1 [Ag2, [Ag(HBPz3)(PPh3)]] |  |  |  |  |  |  |  |  |  |  |  |  |  |  |  |  |  |  | statistically significant difference compared to the group without treatment | reduction in lesion volume | Cytotoxicity (in words) ([3]; murine peritoneal macrophages): did not show cytotoxic activity; Cytotoxicity (in words) (human monocytes; human monocytes): did not show cytotoxic activity; Mean difference in lesion volume versus Glucantime ([8]; after the 14th day of treatment, no statistical difference): 4.38; TrxR inhibition (in words) (mammalian TrxR): very strong inhibitor; Cytotoxic activity toward cancer cell lines (in words) [10]: remarkable cytotoxic activity |
| C[C@@H]1[C@H](O)[C@@H](C)/C=C/C=C/C=C/C=C/C=C/C=C/C=C/[C@H](O[C@@H]2O[C@H](C)[C@@H](O)[C@H](N)[C@@H]2O)C[C@@H]2O[C@](O)(C[C@@H](O)C[C@@H](O)[C@H](O)CC[C@@H](O)C[C@@H](O)CC(=O)O[C@H]1C)C[C@H](O)[C@H]2C(=O)O [amphotericin B®, amphotericin B] |  |  |  |  |  |  |  |  |  |  |  |  |  |  |  |  |  |  |  |  | IC50 amastigote [11]: 1.20 µg/mL (≈ 1.3 µM) |
| meglumine antimoniate [Glucantime®, reference compound] | 292.1 ± 2.4 | 343.1 ± 2.37 | 435.6 ± 3.03 | 286.6 ± 1.28 | 376.5 ± 2.74 | 453.7 ± 3.18 | 57.1 ± 0.77 | 279.2 ± 1.95 | 318.7 ± 1.48 | 48.2 ± 0.77 | 70.2 ± 1.62 | 101 ± 1.02 | 294.6 ± 0.38 | 317.2 ± 1.75 | 391 ± 1.38 | 374.7 ± 0.64 | 372.6 ± 1.75 | 427.8 ± 1.32 |  | reduction in lesion volume | CC50 ([3]; 24 h): 179 ± 0.23 µM; CC50 ([3]; 48 h): 205.2 ± 1.25 µM; CC50 ([3]; 72 h): 212 ± 2.48 µM; CC50 (human monocytes; human monocytes, 24 h): 149 ± 1.52 µM; CC50 (human monocytes; human monocytes, 48 h): 255 ± 2.74 µM; CC50 (human monocytes; human monocytes, 72 h): 398.4 ± 1.18 µM; Viable parasites in cultures of lesion fragments (NNN medium) [8]: Viable parasites were observed; Clinical cure ([8]; 30 days of treatment): no clinical cure was obtained; Viable parasites in cultures of lesion fragments (NNN medium) [9]: presence of viable parasites |
